Reference: patent US4307194A, “Inhibitors, obtained from bacilli, for glycoside hydrolases” (Bayer Aktiengesellschaft, priority 1976, dated 1981)

Assays:
[1] = molecular target: T1, saccharase from swine small intestine mucosa (Sus scrofa, UniProt P56729); test: Saccharase test (saccharase inhibitor units, SIU); type: biochemical; conditions: solid product
T1 construct: sucrase subunit cut from the sucrase-isomaltase precursor
Experimental: A saccharase inhibitor unit (SIU) is defined as the amount of inhibitor which inhibits two saccharase units to the extent of 50%. A saccharase unit (SU) is the amount of enzyme which, under the test conditions indicated below, splits 1 μmol of sucrose into glucose and fructose in one minute. The μmols of glucose formed are determined quantitatively with the aid of the glucose oxidase reaction under conditions under which further splitting of sucrose by saccharase no longer takes place. In order to carry out the test, 1-20 μg of inhibitor, or 1-20 μl of the solution to be tested, are added to 0.05 ml of saccharase solution adjusted to a content of 0.12 SU and the mixture is made up to 0.1 ml with 0.1 M sodium maleate buffer of pH 6.0. Suitably, a solubilised saccharase from swine small intestine mucosa according to B. Borgstrom, A. Dahlquist, Acta Chem. Scand. […] The mixture is equilibrated at 35° C. for 10 minutes and 0.1 ml of a 0.05 M sucrose solution in 0.1 M sodium maleate buffer of pH 6.0, prewarmed to 35° C., is then added. The mixture is incubated at 35° C. for 20 minutes and the saccharase reaction is stopped by adding 1 ml of glucose oxidase reagent and the mixture is incubated for a further 30 minutes at 35° C. […] 1 ml of 50% strength H2 SO4 is then added and the mixture is measured at 545 nm against a corresponding blank value. […]

microbial α-glucosidases = conditions: T. NIWA et al. Agr. Biol. Chem. 34, 966; cited from earlier work

T1 sequence (P56729 with tags, fused parts or gaps): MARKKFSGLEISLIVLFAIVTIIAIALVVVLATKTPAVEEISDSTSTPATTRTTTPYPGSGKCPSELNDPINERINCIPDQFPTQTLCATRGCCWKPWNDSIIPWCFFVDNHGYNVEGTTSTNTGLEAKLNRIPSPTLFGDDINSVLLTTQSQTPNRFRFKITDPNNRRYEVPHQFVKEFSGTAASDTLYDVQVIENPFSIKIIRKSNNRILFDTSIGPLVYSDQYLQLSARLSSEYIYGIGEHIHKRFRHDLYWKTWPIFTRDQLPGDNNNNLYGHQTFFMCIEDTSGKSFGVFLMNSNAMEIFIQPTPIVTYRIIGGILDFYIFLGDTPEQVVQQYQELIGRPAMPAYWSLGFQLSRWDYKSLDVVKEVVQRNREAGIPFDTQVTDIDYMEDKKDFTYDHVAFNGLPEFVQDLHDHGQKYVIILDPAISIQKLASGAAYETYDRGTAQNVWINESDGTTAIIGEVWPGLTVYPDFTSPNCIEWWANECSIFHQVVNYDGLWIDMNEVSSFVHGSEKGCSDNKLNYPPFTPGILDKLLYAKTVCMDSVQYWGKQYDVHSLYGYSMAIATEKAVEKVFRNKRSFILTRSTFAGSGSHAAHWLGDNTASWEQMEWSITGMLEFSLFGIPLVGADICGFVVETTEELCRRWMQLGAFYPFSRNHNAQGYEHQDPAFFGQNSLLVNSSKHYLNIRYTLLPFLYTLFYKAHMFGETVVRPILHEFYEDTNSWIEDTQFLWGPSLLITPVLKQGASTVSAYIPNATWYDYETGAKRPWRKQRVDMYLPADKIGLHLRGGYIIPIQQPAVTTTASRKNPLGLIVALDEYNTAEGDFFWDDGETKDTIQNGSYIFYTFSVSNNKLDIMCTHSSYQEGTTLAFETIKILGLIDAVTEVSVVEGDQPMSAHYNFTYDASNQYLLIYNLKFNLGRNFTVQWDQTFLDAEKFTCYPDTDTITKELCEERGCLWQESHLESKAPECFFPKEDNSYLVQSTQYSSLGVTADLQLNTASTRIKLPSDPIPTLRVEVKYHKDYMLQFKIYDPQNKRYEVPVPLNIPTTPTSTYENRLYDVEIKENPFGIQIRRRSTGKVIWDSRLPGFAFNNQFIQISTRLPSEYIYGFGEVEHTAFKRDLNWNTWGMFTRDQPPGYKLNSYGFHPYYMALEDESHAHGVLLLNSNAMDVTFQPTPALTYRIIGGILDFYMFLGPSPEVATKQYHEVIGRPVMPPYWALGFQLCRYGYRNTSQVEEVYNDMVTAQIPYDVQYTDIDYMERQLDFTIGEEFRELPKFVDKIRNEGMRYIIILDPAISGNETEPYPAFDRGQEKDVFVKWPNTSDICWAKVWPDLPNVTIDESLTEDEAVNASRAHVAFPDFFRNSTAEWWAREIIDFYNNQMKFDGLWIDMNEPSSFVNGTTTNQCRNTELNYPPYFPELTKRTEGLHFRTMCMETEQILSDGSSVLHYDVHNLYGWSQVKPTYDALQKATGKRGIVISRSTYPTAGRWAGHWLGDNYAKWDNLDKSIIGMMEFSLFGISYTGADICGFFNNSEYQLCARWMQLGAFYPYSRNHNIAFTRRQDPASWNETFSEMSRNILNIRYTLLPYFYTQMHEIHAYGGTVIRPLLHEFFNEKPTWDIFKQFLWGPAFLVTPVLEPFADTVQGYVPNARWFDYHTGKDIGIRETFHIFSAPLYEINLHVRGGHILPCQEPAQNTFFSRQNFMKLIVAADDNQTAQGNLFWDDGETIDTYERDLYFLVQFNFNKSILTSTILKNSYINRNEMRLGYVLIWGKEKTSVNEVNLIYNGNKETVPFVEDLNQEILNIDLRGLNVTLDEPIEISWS

Structure (SMILES)	specific saccharase-inhibitory activity [1]	inhibition of microbial α-glucosidases (microbial α-glucosidases)
OC[C@H]1NC[C@H](O)[C@@H](O)[C@@H]1O [Example 34, 1-desoxynojirimycin]	540,000 SIU/g	–
OC[C@H]1NC(O)[C@H](O)[C@@H](O)[C@@H]1O (some centres unmarked) [nojirimycin]	–	inhibits
